“Also recorded” adds a separate entry of the source.
What was measured:
cucumber powdery mildew = assay: Actual test, control of cucumber powdery mildew (April-May 2019); format: in vivo, Erysiphe sp.
Protocol: (§1) While the preliminary test was still underway, 20 cucumber seedlings were grown to the stage of a single leaf, the seedlings then being divided up into 5 boxes. The test groups were • 1. entirely untreated • 2. water spraying three times a week and watering of pot with ozone water for 3 and for 2 weeks before the conclusion of the test • 3. ozone spraying 3 three times a week • 4. ozone spraying 5 times a week at 7 a.m. and 4 p.m. • 5. ozone spraying 5 times a week at 7 a.m., 12 p.m. and 4 p.m.
The test area, in which mesh-bottomed pots were planted in peat with 4 pots in each box, was surrounded with the sick seedlings of the preliminary test, which were at a distance of approx. 60 cm from the test plants.

cucumber = assay: Tolerance of cucumber plants (leaves, roots) to ozone water; format: in vivo
Protocol: Mildewed cucumber leaves were collected from a garden adjacent to the research unit with which 6 outdoor cucumber seedlings were infected. After the verification of the manifestation of an infection, 18 new seedlings were grown up to the stage of the first plant leaf, at which point the plants were divided in onion boxes into 3 groups in the middle of each of which 2 ill plants were placed. The control plants were sprayed three times a week with water. The second test group was sprayed three times a day with ozone water (800 ppb) and the third test group was sprayed mornings and evenings. The sprayings were carried out with large droplets, which remained on the surface of the plant 2-4 hours. At night, the plants were covered with a monochrome plastic in order to maintain a high humidity. The sprayings took place over 6 weeks.
as §1

Fusarium oxysporum = Fusarium oxysporum test 1: fungal suspension in ozone water, plated on PDA; format: cell-based; conditions: for culture colonies in the plate: 10 minutes
Protocol: A plateful of F. oxyxsporum fungus without agar was homogenized with 100 ml of water. 10 ml and 1 ml of the fungal suspension were added to 100 ml of sterile water and 100 ml of 800 ppb ozone water. After 10 minutes, the inoculums from each treatment were placed in 3 PDA plates.

[1] = tested on: Grey mould (Botrytis cinerea); assay: Grey mould test 1: spores rinsed from cabbage in ozone water, plated on PDA; format: cell-based; conditions: taken from wet cabbage / grown at very high humidity
Protocol: Grey mould spores rinsed from cabbage were homogenized in approximately 200 ml of water. 10 ml and 1 ml of this fungal suspension were added to 100 ml of water and 100 ml of ozone water (800 ppb). After 10 and 60 minutes, specimens from each treatment were placed into 3 PDA plates.

[2] = tested on: Grey mould (Botrytis cinerea); assay: Grey mould test 2: almost dry old fungal growth rinsed into ozone water; format: cell-based
Protocol: A petri dish, (a CMA plate, in which cabbage discs stimulate the formation of conidia), comprising the almost dry old fungal growth and the endophytic bacteria from the cabbage therein), grey mould spores were rinsed into 100 ml of water. 1 and 10 ml of this water were pipetted into 100 ml of water and 100 ml of ozone water. 0.5 ml of each of these water mixtures was pipetted into 3 petri dishes in order to determine the vitality of the grey mould.

Pythium ultimum = Pythium ultimum test 1: fungal culture soaked with ozone water; format: cell-based
Protocol: In a first dish, a fungal culture was soaked for 30 minutes with sterile water when the Pythium fungus had grown to a distance of approx. 2 cm away from the small piece of inoculating agar at the rim of the dish, which was removed with a large cork borer before the water treatment. The fungus grew to fill the dish within 16 hours during the water treatment. In a second dish, an identical treatment with ozone water (800 ppb) was carried out. A thicker fungal mycelium was visible in the Pythium culture around the site of inoculation, from which the fungus only had time to grow 2 cm before the ozone treatment. The ozone destroyed the youngest tips of the hyphae of the fungus and the hyphae that had grown apart from the agar, but had no effect on hyphae that had already grown partially into the agar.

grey mould = assay: Grey mould test series on surfaces (wet versus dried fungus); format: cell-based, Botrytis cinerea; conditions: ozone 2500 ppb in the air; grey mould washed from rotting cabbage, sprayed on cabbage, plastic, glass, redcurrant branch
Excerpt: Grey mould turns out to be surprising against ozone. […] When test set-ups yielded the same result the following year, in which grey mould spores and the associated mycelium fragments washed from the surface of moist, rotting cabbage survived on a plastic surface in an ozone spray and in a concentrated ozone solution, it was completely clear that the surfaces of the mycelium and spores of grey mould are completely resistant to ozone. […] In nature, grey mould survives until the following year on the surfaces of rotten plants such as berries and succulent leaves, where they form conidia in conidiophores in moist conditions. In wet conditions, the spores hardly spread with the wind; however, once dried by the sun, the spores of the growth break free to be carried a distance of at least 50 metres by the wind if the wind speed exceeds 2 m/s. Dried mycelium and conidiophores are readily identifiable under a microscope by their structure compared with completely turgid growths.

powdery mildew = assay: Control of powdery mildew infection by gaseous ozone or ozone solution; format: in vivo; conditions: ozone in gaseous form, constant exposure
Protocol: The spores of powdery mildew have an exceptionally high moisture content compared to the spores of other fungal diseases, which is why merely a very high air humidity suffices for a spore infection, yet the conidium is destroyed quickly when engulfed by a water droplet. The spores of the fungus spread during the day and make the plant ill at night. Depending on the species of the powdery mildew, the infection stage takes 6-12 hours. […] Using this knowledge, it is possible to construct technical applications for implementation in greenhouses as well as outdoors for the control of powdery mildew disease infections. Based on this solution, many other plant pests which spread first to the surfaces of the plants as dry spores that have acclimated to the shining of the sun during their evolution (for example grey mould) can also be controlled.

crops = conditions: 80-100 ppb in the air; cited from earlier work

O=[O+][O-] [ozone]
sensitivity of spores (conidia) of powdery mildew (cucumber powdery mildew; in vivo): extremely sensitive
survival of powdery mildew mycelium growing on the surface of the plant (cucumber powdery mildew; ozone concentration of the spraying 340 ppb): survives
state of roots compared with the untreated test group (cucumber; actual test): undamaged
damage to the leaves of the plants (cucumber; actual test, ozone sprayings, any stage): did not damage the leaves
impact on development of fresh weight (cucumber; actual test, watering of the roots with ozone water): did not have an impact
damage to the root system of cucumber or weakening of the plant (cucumber; approximately 800 ppb in the water, stem bottoms watered twice a week, evaluated a week after last treatment, preliminary tests): did not cause any damage
culture colonies in the plate (Fusarium oxysporum; 1 ml of inoculum in 100 ml of 800 ppb ozone water): 1-3 colonies
culture colonies in the plate (Fusarium oxysporum; 10 ml of inoculum in 100 ml of 800 ppb ozone water): 8-17 colonies
sensitivity of spores (conidia) and mycelium of Fusarium fungus (Fusarium oxysporum; in a solution and in sprays on surfaces of dry materials): completely sensitive
sensitivity of grey mould mycelium and spores grown wet [1]: ozone-resistant; also recorded: completely tolerant
sensitivity of dried grey mould mycelium and spores [2]: sensitive
sensitivity of Pythium fungus (mycelium, zoospores) (Pythium ultimum): sensitive
killing of spores and mycelium of grey mould (grey mould): not able to kill off
effect on powdery mildew infection (powdery mildew): satisfactory effect
effect of constant exposure on leaves (crops): causes chlorosis in leaves

Source: US20220248614A1, “METHOD FOR ELIMINATING PATHOGENS IN PLANT GROWING AND CORRESPONDING SYSTEM” (priority 2019, published 2022)
